Assays:
ERG-ETS domain = molecular target: T1, ERG-ETS domain (Homo sapiens, UniProt P11308); experiment: NMR-monitored titration (15N-HSQC) with ERG-ETS domain; conditions: 15N-HSQC titration, 1:1 binding isotherm; pH 6.5; read-out: KD for interaction with recombinant ERG-ETS domain
T1 construct: A pET28a plasmid encoding residues 307–400 of the ERG-ETS domain; His6 (cleaved yes); made in house; host or cells: E. coli BL21 (λDE3)
T1 sequence (P11308 307-400): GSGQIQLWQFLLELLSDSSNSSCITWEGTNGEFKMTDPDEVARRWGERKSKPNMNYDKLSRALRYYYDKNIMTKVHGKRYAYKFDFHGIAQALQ
Procedure: ERG-ETS domain expression and purification. A pET28a plasmid encoding residues 307–400 of the ERG-ETS domain was expressed in E. coli BL21 (λDE3). Cultures of 1 L were grown at 37°C in M9 media supplied with 3 gm/L ^13C6-glucose and/or 1 gm/L ^15NH4Cl. Cells were allowed to grow to O.D.600 = 0.6 and protein expression was induced by adding 1 mM IPTG. After an induction time of 4 h, cells were harvested by centrifugation and stored at −80 °C for at least 1 round of freeze/thaw. Cells were resuspended in 40 mL of lysis buffer for every 1 L of culture. Cells were lysed by passing through 5 rounds of homogenization and 10 mins of sonication. The cell lysate centrifuged at 15k rpm for 1 hr, and the supernatant subjected to nickel column purification. The column was washed using 25 mM imidazole (50 mM phosphate, 1 M NaCl, pH 7.4) and proteins were eluted with 1 M imidazole. Fractions containing the ETS domain were confirmed by SDS-PAGE and pooled. […] NMR data were recorded at 25 or 28°C on cryoprobe-equipped 850 MHz Bruker Avance III spectrometer. Data were processed and analyzed using NMRpipe and Sparky. […] NMR-monitored titrations. Interactions of compounds with the ERG-ETS domain were monitored via sensitivity-enhanced ^15N-HSQC spectra. […] Chemical shift perturbations were calculated from the combined amide ^1H^N and ^15N shift changes as Δδ = [(0.2 × ΔδN)^2 + (ΔδH)^2]^1/2. […]

ERG-DNA complex = molecular target: T2, ERG-DNA complex (Homo sapiens, UniProt P11308); experiment: EMSA with VCaP nuclear lysate; type: binding; conditions: 55 ng/μl nuclear extract, 4 μM to 8 mM
T2 construct: VCaP (endogenous overexpression); endogenous in cells; host or cells: VCaP (whole cells for A2 and A17; nuclear extract for A16)
T2 sequence (P11308 33-479 limits assumed): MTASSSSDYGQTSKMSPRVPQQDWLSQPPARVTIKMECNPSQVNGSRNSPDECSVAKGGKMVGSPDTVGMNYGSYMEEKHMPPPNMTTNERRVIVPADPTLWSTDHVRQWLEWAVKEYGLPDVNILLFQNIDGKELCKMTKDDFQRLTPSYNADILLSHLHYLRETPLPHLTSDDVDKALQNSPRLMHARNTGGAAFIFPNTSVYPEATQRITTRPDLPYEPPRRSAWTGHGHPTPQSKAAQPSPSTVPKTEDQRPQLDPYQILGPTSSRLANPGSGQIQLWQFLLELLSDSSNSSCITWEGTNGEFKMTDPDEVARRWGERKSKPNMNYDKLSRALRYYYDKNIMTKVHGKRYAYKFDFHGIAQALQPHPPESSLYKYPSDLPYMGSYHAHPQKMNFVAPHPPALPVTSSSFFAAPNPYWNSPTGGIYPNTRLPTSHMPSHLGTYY
Procedure: For experiments involving ERG from VCaP cells, VCaP nuclear protein was extracted using CelLytic NuCLEAR Extraction Kit (Sigma). […] For subsequent assays, 55 ng/μl of the nuclear extract was mixed with 1 nM of fluorophore-labeled dsDNA, titrated with VPC-18005 (diluted from a DMSO stock) and analyzed by the same EMSA protocol.

SOX9 = SOX9 gene expression in VCaP cells; type: cell-based, human; conditions: 25 μM, with and without 1 nM R1881
Procedure: Total RNA was extracted from VCaP cells with the use of RNeasy Plus kit (Qiagen). Reverse transcription was performed with the use of the iScript First-Strand cDNA Synthesis Kit (Bio-Rad Laboratories) with 100 ng total RNA used as template. Real time reverse-transcription (RT) polymerase chain reaction (PCR) primers for ERG synthesized by IDT (forward, 5′- CGCAGATTATCGT GCCAGCAGAT -3′; reverse, 5′- CCATATTCTTTCACC GCCCACTCC-3′) and SOX9 (Quantitect primer assay, Qiagen). Real-time quantitative RT-PCR was performed in triplicate for each sample with the use of the ABI ViiA7 QPCR thermocycler. In each reaction, 1 μl cDNA, 1 μl forward and reverse primers (or 1 μl of Quantitect primers), and 6 μl Sybr Green Master Mix (Applied Biosystems) were added with water to make a final volume of 12 μl. All primers were used at a concentration of 5 μmol/l. PCR cycling conditions were 95°C for 10 minutes followed by 40 cycles of 95°C for 15 seconds, 60°C for 1 min. Data was normalized to reference genes: GAPDH (forward, 5′- […] -3′; reverse, 5′- […] -3′) The 2^−ΔΔCT method was used to compare samples. PCR product specificity was validated with the use of a melt curve.

PC3 cells = test system: PC3 cells; design: method as in PMID 21559405; conditions: read-out: IC50 for cytotoxicity in PC3 cells; cited from earlier work

| SMILES | Kd (ERG-ETS domain) [mM] | Disruption of ERG-DNA complex formation, VCaP nuclear lysate (ERG-DNA complex) | Basal and R1881-stimulated SOX9 mRNA and protein expression (SOX9) | IC50 (PC3 cells) [mM] |
| --- | --- | --- | --- | --- |
| CC(C)c1ccc(C=N/N=C2\NC(=O)[C@@H](CC(=O)O)S2)cc1 (stereo in doubt) [VPC-18005, 2-((Z)-2-(((Z)-4-isopropylbenzylidene)hydrazono)-4-oxothiazolidin-5-yl)acetic acid] | ~3 | disrupted ERG-DNA complex formation | markedly decreased | – |
| COc1ccc(C(=O)CC2(O)C(=O)Nc3c(Cl)ccc(Cl)c32)cc1 (stereo not shown) [YK-4-279, reference compound] | – | – | – | > 0.1 |

Reference: publication PMC5522078, “Discovery and characterization of small molecules targeting the DNA-binding ETS domain of ERG in prostate cancer” (Oncotarget, 2017)
